≈ marks a conversion by molar mass, not a printed value.

The term MIC denotes the smallest concentration in the dilution series that meets the test's criterion for growth inhibition. A lower MIC goes with greater potency.

The subject of the test is Mycobacterium tuberculosis variant bovis BCG. The test is described as follows: Antibacterial activity against Mycobacterium bovis BCG ATCC 35734 up to 2 weeks by HT-SPOTi assay. It is filed as functional. The settings on record: ATCC 35734, 336 h.
On to `CCCCCCCC(=O)NCC#Cc1cn([C@H]2C[C@H](O)[C@@H](CO)O2)c(=O)[nH]c1=O`, for which the MIC is above 250 µg/mL.
The result for `CCCCCCCC(=O)NCC#Cc1cn([C@H]2C[C@H](O)[C@@H](COP(=O)(N[C@@H](C)C(=O)OC)Oc3cccc4ccccc34)O2)c(=O)[nH]c1=O` (stereo partly drawn) reads 62.5 µg/mL (≈ 89.5 µM).
The result for `CCCCCCCC(=O)NCC#Cc1cn([C@H]2C[C@H](O)[C@@H](COP(=O)(N[C@@H](C)C(=O)OCC)Oc3cccc4ccccc34)O2)c(=O)[nH]c1=O` (stereo partly drawn) reads 125 µg/mL (≈ 175 µM).
As to `CCCCCCCC(=O)NCC#Cc1cn([C@H]2C[C@H](O)[C@@H](COP(=O)(N[C@@H](C)C(=O)OCC(C)C)Oc3cccc4ccccc34)O2)c(=O)[nH]c1=O` (stereo partly drawn), 125 µg/mL (≈ 169 µM) was the least that counted as inhibitory (MIC).
`CCCCCCCC(=O)NCC#Cc1cn([C@H]2C[C@H](O)[C@@H](COP(=O)(N[C@@H](C)C(=O)OCc3ccccc3)Oc3cccc4ccccc34)O2)c(=O)[nH]c1=O` (stereo partly drawn): the MIC turned out to be 250 µg/mL (≈ 323 µM).
Compound `CCCCCCCC(=O)NCC#Cc1cn([C@H]2C[C@H](O)[C@@H](COP(=O)(N[C@@H](C)C(=O)OC)Oc3ccccc3)O2)c(=O)[nH]c1=O` (stereo partly drawn) returned an MIC above 250 µg/mL.
The result for `CCCCCCCC(=O)NCC#Cc1cn([C@H]2C[C@H](O)[C@@H](COP(=O)(N[C@@H](C)C(=O)OCC)Oc3ccccc3)O2)c(=O)[nH]c1=O` (stereo partly drawn) reads 250 µg/mL (≈ 377 µM); that for `CCCCCCCC(=O)NCC#Cc1cn([C@H]2C[C@H](O)[C@@H](COP(=O)(N[C@@H](C)C(=O)OCCC)Oc3ccccc3)O2)c(=O)[nH]c1=O` (stereo partly drawn), 125 µg/mL (≈ 185 µM); that for `CCCCCCCC(=O)NCC#Cc1cn([C@H]2C[C@H](O)[C@@H](COP(=O)(N[C@@H](C)C(=O)OCc3ccccc3)Oc3ccccc3)O2)c(=O)[nH]c1=O` (stereo partly drawn), 125 µg/mL (≈ 172 µM).
The same measure for `CCCCCCCC(=O)NCC#Cc1cn([C@H]2C[C@H](O)[C@@H](COP(=O)(N[C@H](C)C(=O)OCc3ccccc3)Oc3ccccc3)O2)c(=O)[nH]c1=O` (stereo partly drawn): 62.5 µg/mL (≈ 86.2 µM); for `CCCCCCCC(=O)NCC#Cc1cn([C@H]2C[C@H](O)[C@@H](COP(=O)(NCC(=O)OCc3ccccc3)Oc3ccccc3)O2)c(=O)[nH]c1=O` (stereo partly drawn): above 250 µg/mL.
Regarding `CCCCCCCC(=O)NCC#Cc1cn([C@H]2C[C@H](O)[C@@H](COP(=O)(NC(C)(C)C(=O)OCc3ccccc3)Oc3ccccc3)O2)c(=O)[nH]c1=O` (stereo partly drawn), 125 µg/mL (≈ 169 µM) was the least that counted as inhibitory (MIC).
The same measure for `CCCCCCCC(=O)NCC#Cc1cn([C@H]2C[C@H](O)[C@@H](COP(=O)(N[C@H](C(=O)OCc3ccccc3)C(C)C)Oc3ccccc3)O2)c(=O)[nH]c1=O` (stereo partly drawn): 125 µg/mL (≈ 166 µM).

The record behind these values is ChEMBL document CHEMBL3259765, “ProTides of N-(3-(5-(2'-deoxyuridine))prop-2-ynyl)octanamide as potential anti-tubercular and anti-viral agents” (Bioorg Med Chem, 2014).
